Measurements: patent US20110207807A1, “NEW USE FOR HOMOISOFLAVONE OR A SALT THEREOF” (Catholic University Industry Academy Cooperation Foundation, priority 2008, published 2011)

Columns and labels:
[1] = test system: intracellular reactive oxygen species (ROS); experiment: Intracellular ROS induced by UV radiation (DCFH-DA fluorescence microscopy); assay type: cell-based, human; conditions: HaCaT cells, 1 μg/mL, UV 100 J/m^2, compared to UV only (FIG. 1)
Experimental: Human keratinocyte cell line HaCaT cells (acquired from Professor N. Fusenig of the German Cancer Research Center) were inoculated on a 60-mm culture dish (5×10^5 cells; 1×10^6 cells for a 100-mm culture dish) and cultured for 24 hours in Dulbecco's modified Eagle's medium (DMEM) containing 10% fetal bovine serum (FBS).
Then, after treating with homoisoflavanone of Chemical Formula 1 (R=OCH3) at a concentration of 1 μg/mL for 1 hour, the cells were washed 3 times with phosphate buffered saline (PBS). In order to generate reactive oxygen species (ROS), the cells were irradiated with UV at 100 J/m^2 using a UV lamp (FSX 24 T12/UVB/HO, Pansol™, USA). Immediately after the UV radiation, the cells were washed again with PBS and further cultured for 4 hours in DMEM containing 1% FBS, while treating with homoisoflavanone at the same concentration. Then, after treating for 30 minutes in Hank's balanced salt solution (HBSS, BioWhittaker, Cambrex, USA) with 25 μM 2,7-dichlorofluorescein diacetate (DCFH-DA), the cells were washed 3 times with PBS.
Thereafter, the ROS induced by UV were measured using a fluorescence microscope (Carl Zeiss, USA). Test groups were subdivided as follows: non-treated group—treated with neither UV nor homoisoflavanone; test group A—treated with homoisoflavanone only; control group—treated with UV only; test group B—treated with UV and homoisoflavanone.

[2] = test system: ERK; experiment: ERK phosphorylation induced by PMA and A23187 in HMC-1 (Western blot); assay type: cell-based, human; conditions: HMC-1, 2 μg/mL, 50 nM PMA + 1 μM A23187, 30 minutes (FIG. 7c)
Experimental: 1×10^6 HMC-1 cells were inoculated on a 100-mm culture dish and cultured in IMDM containing 10% FBS for 48 hours. […] Then, Western blotting was carried out in the same manner as in Example 2-1 except for using rabbit anti-p-cytosolic phospholipase A2 (cPLA2) antibody, rabbit anti-cPLA2 antibody, rabbit anti-ERK antibody and rabbit anti-p-ERK antibody (Cell Signaling) and using anti-rabbit IgG-HRP conjugation antibody (Zymed) as secondary antibody.

[3] = test system: cPLA2; experiment: UV-induced cPLA2 phosphorylation in HaCaT cells (Western blot); assay type: cell-based, human; conditions: 1 μg/mL, UV (FIG. 2b)
Experimental: (§1) In order to identify the intracellular factors affecting COX-2 expression that are affected by homoisoflavanone, Western blotting was carried out in the same manner as in Example 2-1 except for treating with homoisoflavanone at 1 μg/mL, irradiating UV for 45 minutes and using rabbit anti-p-cytosolic phospholipase A2 (cPLA2) antibody, rabbit anti-cPLA2 antibody, rabbit anti-ERK antibody, rabbit anti-p-ERK antibody, rabbit anti-p38 antibody or rabbit anti-p-p38 antibody and using anti-rabbit IgG-HRP conjugation antibody (Zymed) as secondary antibody. Positive control groups were treated with 1 μM SB203580 (A.G. Scientific, Inc.) as p38 inhibitor or 10 μM PD98059 (A.G. Scientific, Inc.) as MEK 1 inhibitor instead of homoisoflavanone.

[4] = test system: p38; experiment: UV-induced p38 phosphorylation in HaCaT cells (Western blot); assay type: cell-based, human; conditions: 1 μg/mL, UV (FIG. 2c)
Experimental: as §1

[5] = test system: HMC-1 cells; experiment: Histamine release during degranulation of HMC-1 (histamine enzyme assay kit); assay type: cell-based, human; conditions: HMC-1, 2 μg/mL, 50 nM PMA + 1 μM A23187 (FIG. 8b)
Experimental: In order to investigate the effect of homoisoflavanone on COX-2 expression induced by phorbol 12-myristate 13-acetate and A23187 in HMC-1, 1×10^5 HMC-1 cells were inoculated on a 6-well plate and cultured in IMDM containing 10% FBS for 48 hours. Then, after treating with homoisoflavanone at 2 μg/mL for 1 hour, the cells were treated with 50 nM phorbol 12-myristate 13-acetate and 1 μM A23187 to induce COX-2 expression, and then further cultured for 6 hours. Then, the cells were fixed with 2.5% glutaraldehyde and frozen with liquid nitrogen. The cells were detached from the plate by applying heat, sliced into […], attached on grids, and observed with a transmission electron microscope (TEM).
In order to measure histamine released during the degranulation, the cell supernatant was collected and subjected to measurement using a histamine enzyme assay kit (Cayman, USA) according to the manufacturer's instructions. First, the collected supernatant was anti-histamine derivatized and reacted with histamine-AChE tracer. Then, after washing at least 5 times followed by visualization for 60-90 minutes, absorbance was measured at 414 nm.

[6] = test system: BALB/c mouse; experiment: Ear edema induced by arachidonic acid in animal model; assay type: in vivo; conditions: topical 1 μg/10 μL homoisoflavanone or 50 μg/10 μL dexamethasone 1 h before arachidonic acid 100 mg/mL 10 μL, 1 hour after AA, vs AA control (FIG. 5a, 5b)
Experimental: Experiment was carried out as follows using BALB/c mouse. Test groups are as follows: non-treated group—treated not with arachidonic acid (AA) but only with acetone; control group (AA)-treated with arachidonic acid; test group A—treated with 1 μg/10 μL homoisoflavanone or 50 μg/10 μL dexamethasone as well as 100 mg/mL 10 μL arachidonic acid.
One hour before treating with arachidonic acid, 1 μg/10 μL homoisoflavanone or 50 μg/10 μL dexamethasone was applied on the front and rear parts of the ear, 5 μL each. Then, 1 hour after applying 100 mg/mL 10 μL arachidonic acid, ear thickness and weight were measured.

[7] = test system: rat mast cells; experiment: Antigen (DNP-IgE/DNP-HSA)-induced degranulation of rat mast cells (hexosaminidase release); assay type: cell-based; conditions: at 2 μg/mL, DNP-IgE / 10 ng/mL DNP-HSA, concentration-dependent (FIG. 8c)
Experimental: Further, the effect of homoisoflavanone on degranulation of rat mast cells induced by antigen was investigated. 5×10^4 rat mast cells were inoculated on a 6-well plate and cultured in MEM containing 15% FBS for 24 hours. Then, after reacting with 1 μg/mL DNP-IgE for 16 hours and then removing DNP-IgE by washing with PBS, the cells were cultured in 15% MEM for 6 hours. After pretreating with homoisoflavanone in Tyrode's solution for 30 minutes, the cells were treated with 10 ng/mL DNP-human serum albumin (HSA) to induce degranulation by transmitting the signals induced by the antigen. 30 minutes later, the supernatant was collected and the pellets were lysed with 0.5% triton X-100 (500 μL). The supernatant and the lysed pellets (70 μL) were incubated at 37° C. for 90 minutes in 0.1 M sodium citrate solution (pH 4.5) containing 8 mM p-nitrophenyl-N-acetyl-β-d-glucosaminide (70 μL). Then, after adding 0.2 M glycine (pH 10.7, 70 μL) to stop the reaction, absorbance was measured at 405 nm. Total enzymatic activity was calculated by the following equation.
Release amount=(Absorbance of supernatant)÷(Absorbance of supernatant+Absorbance of pellets)×100%

With COc1ccc(CC2COc3cc(O)cc(O)c3C2=O)cc1O (centres unmarked) [homoisoflavanone] the “generation of intracellular ROS induced by UV” value [1] was “decreased significantly”, the ERK phosphorylation [2] was “no effect” and the “phosphorylation of cPLA2” value [3] was “inhibited”. For the same molecule, the “phosphorylation of p38” value [4] was “inhibited”, the “inhibition of release of histamine” value [5] was 72% and the ear thickness [6] was “decrease”. The ear weight [6] was “decrease” and the “inhibition of antigen-induced degranulation (hexosaminidase release)” value [7] was 50%.
